Converted amounts (≈) assume the structure as drawn. Where a name gives a salt, the structure may show the parent alone. Read-outs that look alike come from different tables or passages of the source.

For series [1], the system named is blood pressure. Nature of the series: hypotensive activity, intravenous injection in anesthetized rats. The class given is in vivo, rats (male wister). To be noted: for blood pressure lowering activity (in words): general statement; for ED20: Rattus norvegicus, iv, anesthetized rats, read-out: P-ED20 (dosage causing a 20% lowering of the mean blood pressure). As for the experimental part: (§1) Measurement of the hypotensive activity:
(§2) The actions of the prostacyclin derivatives of the invention on the blood pressure and heart rate of rats were examined by intravenous injection under anesthesia.
(§3) Male wister rats weighing about 250 g were used. Urethane (500 mg/kg) and α-chloralose (100 mg/kg) were intraperitoneally administered to the rats. The rats were anesthetized and fixed in place.
(§4) Each of the test compounds was dissolved in a small amount of ethanol and diluted with 0.05M Tris buffer saline (pH 9) to adjust the final ethanol concentration to not more than 5%. The solution was intravenously injected into the rats through a catheter inserted into the femoral vein.
(§5) The blood pressure of the rats was measured by a pressure transducer through a catheter inserted into the carotid artery of the rats. The heart rate was determined from the blood pressure pulse.
(§6) The action of the test compound on the blood pressure was expressed as the dosage (P-ED20, μg/kg) of the test compound which caused a 20% lowering of the mean blood pressure before administration of the compound. The action of the test compound on the heart rate was expressed as the dosage (H-ED10, μg/kg) of the test compound which caused a 10% increase of the heart rate from the heart rate before administration of the test compound.

For series [2], the system named is platelet aggregation. Nature of the series: in vitro inhibitory activity of platelet aggregation (ADP-induced, rabbit PRP). The class given is cell-based, rabbit (Japanese domestic white male). To be noted: for platelet aggregation inhibiting activity (in words): general statement; for IC50: Oryctolagus cuniculus, Platelet, rabbit PRP, 10 μM ADP, 37° C., read-out: IC50 (minimum concentration which inhibited more than 50% of platelet aggregation). As for the experimental part: (1) in vitro inhibitory activity of platelet aggregation:
The in vitro platelet aggregation inhibiting activities of the compounds of the invention were examined by using rabbits. Blood was withdrawn from the ear vein of Japanese domestic white male rabbits weighing 2.5 to 3.5 kg. A mixture of a 3.8% trisodium citrate solution and the blood in a ratio of 1:9 was centrifuged at a speed of 1000 rpm for 10 minutes. The upper layer was separated as platelet-rich plasma (PRP). The lower layer was further centrifuged at a speed of 2800 rpm for 10 minutes. The upper layer was separated as platelet-poor plasma (PPP). The number of platelets was adjusted to 6×10^5 /μl to 7×10^5 /μl by diluting the PRP with PPP. 25 microliters of the test compounds prepared as shown below was added in an amount of 25 to 250 microliters of PRP after the adjustment, and the mixture was pre-incubated at 37° C. for 2 minutes, and then 10 μM (final) of ADP was added. By using an aggregometer, changes in transmission were recorded.
The drug was dissolved in ethanol to a concentration of 10 mg/ml. When its activity was measured, it was used after being diluted with phosphate buffer (pH 7.4). Furthermore, after dilution with the buffer, the drug was left to stand at 0° C. for 4 hours, and the activity of the drug was similarly measured.
The rate of inhibition of platelet aggregation was determined from the following equation.
Inhibition rate (%)=(1-T/To)×100
To : the transmittance of the system containing the phosphate buffer,
T: the transmittance of the system to which the test drug was added.
The minimum concentration of the drug which inhibited more than 50% of platelet aggregation was shown as an IC50 value.

Series [3] concerns blood pressure. The series is described as follows: action on blood pressure, intraduodenal administration to conscious rats. The class given is in vivo, rats (male SD). The note with it: for mean blood pressure: N 4. As for the experimental part:
The prostocyclin derivatives of the invention were intraduodenally administered to conscious rats, and their action on the blood pressure was examined.
Male SD rats weighing about 200 g were used as experimental animals. These rats had been fasted for 16 hours before the start of the experiment. A catheter was inserted into the femoral artery of the rats under ether anesthesia, and then the rats were restrained within a Bollman cage. After more than 1 hour from awakening, each of the test compounds was intraduodenally administered.
The test compound was dissolved in a small amount of ethanol, and then diluted with 0.05M Tris buffer (pH 9) to adjust the final concentration of ethanol to not more than 5%. The mean blood pressure was measured by meaans of a pressure transducer through the catheter inserted into the femoral artery.

Series [4] deals with platelet aggregation. The series is described as follows: extra vivo inhibitory activity of platelet aggregation after intraduodenal administration. The class given is in vivo, SD strain rats. To be noted: for inhibition (%) (rate of platelet aggregation inhibition): 3 mg/kg i.d., blood drawn 30 min after administration, ADP, N 4. As for the experimental part: extra vivo inhibitory activity of platelet aggregation:
The extra vivo platelet aggregation inhibitory activity of the prostacyclin derivatives of the invention were measured by using […]. The test compound of the invention in ethanol was diluted with 0.05M Tris buffer (pH 9.0) and as a control, only the 0.05M Tris buffer solution was used. These solutions were each intraduodenally administered in a dose of 1 ml/kg to SD strain rats weighing about 200 g which had been fasted for 16 hours. Thirty minutes after the administration, blood was drawn off from the aorta using trisodium citrate so that the ratio of the blood to 3.8% trisodium citrate was 9:1. The blood was centrifuged at a speed of 800 rpm for 10 minutes. The upper layer was separated as platelet-rich plasma (PRP). The lower layer was further centrifuged at a speed of 2800 rpm for 10 minutes. The upper layer was separated as platelet poor plasma (PPP). 250 microliters of the resulting PRP was taken into an aggregometer cuvette, and incubated at 37° C. for 2 minutes. Then, 25 microliters of a 1.25 μM ADP disodium solution adjusted by dissolving with 0.1M tris-HCl buffer (pH 8.0) was added. The aggregation curve was recorded for 3 minutes. The maximum degree of aggregation of platelets within this time period was read, and the rate of inhibition of platelet aggregation was calculated from the following equation.
Rate of platelet aggregation inhibition (%)=(1-(TD /TC)×100
TC : the transmittance of the control glroup (to which only the 0.05M Tris buffer solution was administered),
TD : the transmittance of the drug administered group.

A short description of series [5]: chemical stability at pH 7.4 (half period from UV absorption at 210 nm). Format: physicochemical. The note with it: pH 7.4 phosphate buffer, room temperature, UV 210 nm. As for the experimental part:
Test for the chemical stability of (5E)-5-chloro-PGI2 sodium salt (No. 686) and (5Z)-5-chloro-PGI2 sodium salt (No. 5Z-686):
6.54 ml of 0.02M potassium dihydrogen phosphate and 29.0 ml of 0.01M disodium hydrogen phosphate were mixed, and the pH of the mixture was measured by a pH meter.
The solution of (5E)-5-chloro-PGI2 sodium salt obtained in Example 35 and the solution of (5Z)-5-chloro-PGI2 sodium salt obtained in Example 36 were each added to the above buffer mixture, and their UV spectra were periodically recorded at room temperature. From the absorption values at 210 nm, the half periods of these salts were determined.

The test system of series [6] is heart rate. The series is described as follows: action on heart rate, intravenous injection in anesthetized rats. The note with it: Rattus norvegicus, i.v., read-out: H-ED10 (dosage causing a 10% increase of the heart rate). The class given is in vivo, rats (male wister). The protocol: as §1, §2, §3, §4, §5, §6
Series [7] relates to blood pressure / platelet aggregation. Nature of the series: ratio of the blood pressure lowering activity and the platelet aggregation inhibiting activity. Details: species or system rats (blood pressure); rabbits (platelets). To be noted: for P-ED20 / platelet IC50: P-ED20 rats i.v., IC50 rabbit platelets in vitro; for selectivity of pharmacological activity (in words): compared with PGI2. The protocol: (2) From the results obtained in Examples 100 and 101, the ratio of the blood pressure lowering activity and the platelet aggregation inhibiting activity was calculated. The result is shown in Table 3 together with the ratio obtained with PGI2.

For series [8], the system named is Lewis lung carcinoma. The series is described as follows: activity of inhibiting metastasis of a malignant tumor. Format: in vivo, mice. The protocol:
Measurement of the activity of inhibiting metastasis of a malignant tumor:
Mice were used as experimental animals. Lewis lung carcinoma (4×10^5 cells/100 μl) was transplanted into the foot pad of each mouse. For seven days from the 5th to the 11th day after the transplantation, the compound No. 686 of the invention was intraperitoneally administered to the mouse once a day. On the 12th day, the foot at the primary nest was cut off, and the weight of the cut foot (primary nest portion) was measured. On the 20th day after the transplantation, the number of nests which metastasized to the lungs was measured.

Where [9] appears, read: 4 hr standing at 0° C. after dilution with phosphate buffer pH 7.4.
Where [10] appears, read: 10 μg/kg/day i.p., day 5 to 11, 5 animals.

As to 5-Chloro-PGI2 [Compound 500], in series [1], the “blood pressure lowering activity (in words)” value is “low blood pressure lowering activity”. Moreover, the “platelet aggregation inhibiting activity (in words)” value in series [2] is “high platelet aggregation inhibiting activity”.

In the case of `CCCCCC(O)C=CC1C(O)CC2OC(=CCCCC(=O)O)CC21` (stereo not drawn) [Sodium salt of PGI2, reference compound], the mean blood pressure in series [3] (3 mg/kg i.d., 0 min) is given as 109 ± 1; in series [3] (3 mg/kg i.d., 5 min) it was 84 ± 3; in series [3] (3 mg/kg i.d., 10 min) it was 101 ± 4; in series [3] (3 mg/kg i.d., 15 min), 110 ± 2; in series [3] (3 mg/kg i.d., 30 min) it was 109 ± 1; in series [3] (3 mg/kg i.d., 60 min), 107 ± 2. For the same compound, the mean blood pressure in series [3] (3 mg/kg i.d., 120 min) amounted to 103 ± 2. The “blood pressure lowering activity (in words)” value in series [3] (Table 4, i.d., conscious rats) was “stronger blood pressure lowering activity than the compound No. 688 of the present invention (especially five minutes later)”. Further, in series [4], the “inhibition (%) (rate of platelet aggregation inhibition)” value was 56.5 ± 11.3%.

For `CCCCCC(O)C=CC1C(O)CC2OC(=C(Cl)CCCC(=O)O)CC21` (stereo not drawn) [Compound 5Z-686, (5Z)-5-chloro-PGI2, sodium salt], the half period result in series [5] is “more than 1 month”.

Regarding `CCCCCC(O)C=CC1C(O)CC2OC(=C(Cl)CCCC(=O)OC)CC21` (stereo not drawn) [Compound 636, (5E)-5-chloro-PGI2 methyl ester], the IC50 in series [2] (0 hr) came to 0.62 µg/mL (≈ 1.55 µM); in series [2] (setting [9]), 0.51 µg/mL (≈ 1.27 µM).

With `CCCCCC(O)C=CC1C(O)CC2OC(=CCCCC(=O)O)C(F)C21` (stereo not drawn) [Compound 688, sodium salt of 7-fluoro-PGI2], in series [1], the ED20 turned out to be 0.7 µg/kg. Further, in series [6], the ED10 was found to be 1.9 µg/kg. For the same compound, the IC50 in series [2] (0 hr) and in series [2] (setting [9]) was 0.05 µg/mL in each case. The “P-ED20 / platelet IC50” value in series [7] came out at 14.0. Further, the “selectivity of pharmacological activity (in words)” value in series [7] is listed as “higher selectivity of pharmacological activity than PGI2”. Besides, the mean blood pressure is on record as 102 ± 4 in series [3] (1 mg/kg i.d., 0 min); 101 ± 4 in series [3] (1 mg/kg i.d., 5 min); 97 ± 3 in series [3] (1 mg/kg i.d., 10 min); 99 ± 4 in series [3] (1 mg/kg i.d., 15 min); 104 ± 3 in series [3] (1 mg/kg i.d., 30 min); 100 ± 4 in series [3] (1 mg/kg i.d., 60 min). In addition, the mean blood pressure worked out at 100 ± 2 in series [3] (1 mg/kg i.d., 120 min); 104 ± 2 in series [3] (3 mg/kg i.d., 0 min); 100 ± 3 in series [3] (3 mg/kg i.d., 5 min); 100 ± 3 in series [3] (3 mg/kg i.d., 10 min); 103 ± 2 in series [3] (3 mg/kg i.d., 15 min); 102 ± 3 in series [3] (3 mg/kg i.d., 30 min). The mean blood pressure in series [3] (3 mg/kg i.d., 60 min) came to 102 ± 2; in series [3] (3 mg/kg i.d., 120 min), 100 ± 2. In addition, the “inhibition (%) (rate of platelet aggregation inhibition)” value in series [4] came to 87.5 ± 5.8%. Moreover, the “platelet aggregation inhibiting activity (in words)” value in series [4] (Table 5, 3 mg/kg i.d., rats) is listed as “stronger platelet aggregating activity than the sodium salt of PGI2”.

As to `CCCCCC(O)C=CC1C(O)CC2OC(=C(Cl)CCCC(=O)O)CC21` (stereo not drawn) [Compound 686, (5E)-5-chloro-PGI2, sodium salt], the half-life in series [5] was roughly 22 days. For the same compound, the ED20 in series [1] turned out to be 2.4 µg/kg. Also, in series [6], the ED10 was greater than 10 µg/kg. In series [2] (0 hr), the IC50 was found to be 0.14 µg/mL. Further, the IC50 in series [2] (setting [9]) stood at 0.12 µg/mL. In series [7], the “P-ED20 / platelet IC50” value is reported as 17.1 and the “selectivity of pharmacological activity (in words)” value is given as “higher selectivity of pharmacological activity than PGI2”. Moreover, in series [8] (setting [10]), the “Number of nests which metastasized to the lungs (measured on the 20th day)” value is 25.6 ± 12.0 and the “Weight of the primary next portion measured on the 12th day” value stood at 2.17 ± 0.86 g. Also, in series [8] (Table 6), the “metastasis of the primary nest to the lungs (in words)” value is recorded as “inhibited metastasis of the primary nest to the lungs” and the “primary nest (in words)” value is “reduced the primary nest”.

As to `CCCCCC(O)C=CC1C(O)CC2OC(=CCCCC(=O)OC)C(F)C21` (stereo not drawn) [Compound 637, 7-fluoro-PGI2 methyl ester], the IC50 in series [2] (0 hr) is 0.34 µg/mL (≈ 0.884 µM); in series [2] (setting [9]), 0.38 µg/mL (≈ 0.988 µM).

`CCCCCC(O)C=CC1C(O)CC2OC(=CCCCC(=O)O)C(F)C21` (stereo not drawn) [Compound 501, 7-Fluoro-PGI2]: in series [1], the “blood pressure lowering activity (in words)” value was “low blood pressure lowering activity”. Besides, the “platelet aggregation inhibiting activity (in words)” value in series [2] is reported as “high platelet aggregation inhibiting activity”.

For the origin of these results see patent US4472428A, “Halogenated prostacyclins pharmaceutical use thereof and hydroxy intermediates therefore” (Teijin Limited, priority 1980, dated 1984).
